Assay results from patent US20160046582A1 (Teva Pharmaceutical Industries Ltd., priority 2014, published 2016).
Where two headings read alike, the source gives them in different places.

Experiments:
Hygroscopicity = type: physicochemical; details: exposure to air
[1] = Chemical stability observed on handling or purification; type: physicochemical; details: most organic solvents and aqueous acidic medium
[2] = Particle size distribution by Malvern laser diffraction (Mastersizer S); type: physicochemical; details: for PSD by Malvern D(0.9) / PSD by Malvern d(0.1) / PSD by Malvern d(0.5): modified pilot scale, 2.5 kg batch
Method: The particle size distributions were measured by Malvern Laser Diffraction, using the Mastersizer S model. Laser diffraction relies on the fact that diffraction angle of light is inversely proportional to particle size. Properties of particles are measured and interpreted as measurements of a sphere (a sphere being the only shape that can be described by one unique number). In addition, laser diffraction calculates a particle size distribution based around volume terms, thus eliminating particle count from the determination of particle size. The Mastersizer S model measures particles using a single technique and a single range setting.
D(0.1) is the particle size, in microns, below which 10% by volume distribution of the population is found. D(0.5) is the particle size, in microns, below which 50% by volume distribution of the population is found. D(0.9) is the particle size, in microns, below which 90% by volume distribution of the population is found.

Bulk density of powder = type: physicochemical; details: production scale
Method: • 1. Mix powder; • 2. Tare a 50 ml empty cylinder on a 0.01 g sensitivity balance; • 3. Transfer the powder, without compacting, to the cylinder being held at approximately a 45 degree angle to achieve an untapped apparent volume of 40 to 50 ml. • 4. Bring the cylinder containing the sample to a vertical position by a sharp move in order to level the volume for reading. • 5. Read the apparent volume (Va) to the nearest graduated unit; • 6. Weigh the cylinder with sample (the balance gives sample weight M); • 7. Calculate bulk density in g/ml according to the following equation: BD=M/Va; • 8. Perform steps 1-7 again and report the average data of duplicates.

[3] = Tapped density of powder (Quantachrome Dual Autotap, 1250 taps); type: physicochemical; details: production scale
Excerpt: • 1. Put the same cylinder used to calculate Bulk Density in a Quantachrome Dual Autotap instrument; • 2. Perform 1250 taps; • 3. Read the tapped volume (Vf) to the nearest graduated unit; • 4. Calculate the tapped density in g/ml according to the following equation: TD=M/Vf; • 5. Perform steps 1-4 again and report the average data of duplicates.

[4] = prior art examples; cited from earlier work
[5] = cited from earlier work
[6] = Solubility in water (description of drug substance); type: physicochemical
Excerpt: The solubility terms are defined below, in accordance with the United States Pharmacopoeia XXV.

[7] = cited from earlier work; remark: listed apart in the source
[8] = tested on: active MRI lesions in relapsing MS; details: cited from earlier work
[9] = tested on: acute experimental autoimmune encephalomyelitis (aEAE) model; details: in vivo; cited from earlier work
[10] = In vitro AMES test (CRL studies No. 962723 and No. 963892); type: cell-based; details: MCQ: pre-incubation method, CRL study No. 962723, MCQME: CRL study No. 963892
[11] = In vivo MN (Covance study No. 8246631)
[12] = laboratory scale, 25 g batch, prior art
[13] = laboratory scale recrystallization, 25 g
[14] = starting material of the recrystallization

With `CCN(C(=O)c1c(O)c2c(N(C)C[C@H](O)[C@@H](O)[C@H](O)[C@H](O)CO)cccc2n(C)c1=O)c1ccccc1` (stereo in doubt) [MEG-LAQ, N-ethyl-4-hydroxy-1-methyl-5-(methyl(2,3,4,5,6-pentahydroxyhexyl)amino)-2-oxo-N-phenyl-1,2-dihydroquinoline-3-carboxamide] as the compound, how does the hygroscopicity (Hygroscopicity) read?
Its hygroscopicity is “high hygroscopicity”.

With `CCN(C(=O)c1c(O)c2c(O)cccc2n(C)c1=O)c1ccccc1` [Batch 5-HLAQ, N-ethyl-4,5-dihydroxy-1-methyl-2-oxo-N-phenyl-1,2-dihydroquinoline-3-carboxamide] as the compound, how does the stability in solvents [1] read?
The stability in solvents was “unstable”.

Which results are given for `CCN(C(=O)c1c([O-])c2c(Cl)cccc2n(C)c1=O)c1ccccc1.[Na+]` [Batch C]?
PSD D(0.1) ([2]; production scale): 4.1 μm; PSD D(0.5) ([2]; production scale): 14.0 μm; PSD D(0.9) ([2]; production scale): 32.0 μm; Bulk Density (Bulk density of powder): 0.308 g/mL; Tapped Density [3]: 0.609 g/mL

With `CCN(C(=O)c1c([O-])c2c(Cl)cccc2n(C)c1=O)c1ccccc1.[Na+]` [Batch D] as the compound, how does the “PSD D(0.5)” value ([2]; production scale) read?
Its value is 14.7 μm.

And the “PSD D(0.9)” value ([2]; production scale)?
The value was 33.6 μm.

And the “Bulk Density” value (Bulk density of powder)?
The value was 0.288 g/mL.

What does the source list for `CCN(C(=O)c1c([O-])c2c(Cl)cccc2n(C)c1=O)c1ccccc1.[Na+]` [Batch E]?
PSD D(0.1) ([2]; production scale): 2.5 μm; PSD D(0.5) ([2]; production scale): 9.5 μm; PSD D(0.9) ([2]; production scale): 21.0 μm; Bulk Density (Bulk density of powder): 0.245 g/mL; Tapped Density [3]: 0.460 g/mL

For `CCN(C(=O)c1c([O-])c2c(Cl)cccc2n(C)c1=O)c1ccccc1.[Na+]` [Example 13 of U.S. Pat. No. 7,884,208], which “Tapped Density (in words)” value [4] is on record?
Its value is “high”.

Which results are given for `CCN(C(=O)c1c([O-])c2c(Cl)cccc2n(C)c1=O)c1ccccc1.[Na+]` [Example 14 of U.S. Pat. No. 7,884,208]?
size of 10% or more of the total amount by volume of the particles ([5]; prior art example): less than 5 microns; Tapped Density (in words) [4]: undesired

Which “PSD by Malvern D(0.9)” value [5, 12] does the source give for `CCN(C(=O)c1c([O-])c2c(Cl)cccc2n(C)c1=O)c1ccccc1.[Na+]` [Example 15 from U.S. Pat. No. 7,884,208] here?
The value was 51.8 um.

What about the “PSD by Malvern d(0.1)” value [5, 12] of the same compound?
The value was 6.1 um.

What about the “PSD by Malvern d(0.5)” value [5, 12] of the same compound?
The value was 21.2 um.

Which “PSD D(0.1)” value [2, 13] does the source give for `CCN(C(=O)c1c([O-])c2c(Cl)cccc2n(C)c1=O)c1ccccc1.[Na+]` [Laboratory Scale Batch A] here?
The value was 2.3 μm.

What about the “PSD D(0.5)” value [2, 13] of the same compound?
The value was 10.8 μm.

And the “PSD D(0.9)” value [2, 13]?
The value was 32.7 μm.

With `CCN(C(=O)c1c([O-])c2c(Cl)cccc2n(C)c1=O)c1ccccc1.[Na+]` [Laboratory Scale Batch B] as the compound, how does the “PSD D(0.1)” value [2, 13] read?
The value was 2.6 μm.

What about the “PSD D(0.5)” value [2, 13] of the same compound?
Its value is 12.4 μm.

And the “PSD D(0.9)” value [2, 13]?
Its value is 34.3 μm.

What does the source list for `CCN(C(=O)c1c([O-])c2c(Cl)cccc2n(C)c1=O)c1ccccc1.[Na+]` [Laquinimod sodium]?
solubility in water [6]: freely soluble; oral bioavailability [7]: high

Which “development of active MRI lesions” value [8] does the source give for `CCN(C(=O)c1c(O)c2c(Cl)cccc2n(C)c1=O)c1ccccc1` [Laquinimod, N-ethyl-N-phenyl-1,2,-dihydro-4-hydroxy-5-chloro-1-methyl-2-oxoquinoline-3-carboxamide] here?
Its value is “can reduce development of active MRI lesions”.

And the “efficacy in aEAE model” value [9]?
The value was “effective”.

For `Cn1c(=O)cc(O)c2c(Cl)cccc21` [MCQ, 5-chloro-4-hydroxy-1-methylquinolin-2(1H)-one], which “AMES test genotoxic activity” value [10] is on record?
The value was “AMES data negative in the pre-incubation”.

Which “AMES test genotoxic activity” value [10] does the source give for `COC(=O)c1c(O)c2c(Cl)cccc2n(C)c1=O` [MCQME, methyl 5-chloro-4-hydroxy-1-methyl-2-oxo-1,2-dihydroquinoline-3-carboxylate] here?
The value was “Weak genotoxic activity in the in vitro”.

What about the “in vivo MN” value [11] of the same compound?
Its value is “negative in the in vivo MN”.

With `CCN(C(=O)c1c([O-])c2c(Cl)cccc2n(C)c1=O)c1ccccc1.[Na+]` [Pilot Scale Batch A] as the compound, how does the “PSD by Malvern D(0.9)” value [2] read?
Its value is 33.8 um.

And the “PSD by Malvern d(0.1)” value [2]?
Its value is 3.3 um.

And the “PSD by Malvern d(0.5)” value [2]?
Its value is 12.9 um.

What does the source list for `CCN(C(=O)c1c([O-])c2c(Cl)cccc2n(C)c1=O)c1ccccc1.[Na+]` [Pilot Scale Batch B]?
PSD by Malvern D(0.9) [2]: 33.9 um; PSD by Malvern d(0.1) [2]: 4.1 um; PSD by Malvern d(0.5) [2]: 13.5 um

For `CCN(C(=O)c1c([O-])c2c(Cl)cccc2n(C)c1=O)c1ccccc1.[Na+]` [crude laquinimod sodium], which “particle size d(0.1)” value [2, 14] is on record?
The value was 1-2 μ.

And the “particle size d(0.5)” value [2, 14]?
Its value is 6-11 μ.

And the “particle size d(0.9)” value [2, 14]?
Its value is 20-35 μ.
